Source: PMC12462173, “Evaluation of in vitro drug-drug interactions of ivermectin and antimalarial compounds” (Malaria Journal, 2025)
Several values for one entry are separate records, joined by “and”; a condition that tells them apart may be missing. Identical values can stand only once. Entries after “also recorded” stand apart in the source; their conditions may differ.

Experiments:
[1] = enzymes that metabolize the drug; cited from earlier work
[2] = reported peak concentration in a patient population associated with standard dosing; cited from earlier work
[3] = test system: pooled human liver microsomes; test: In vitro metabolism of ivermectin in pooled human liver microsomes, alone and co-incubated with an antimalarial (CYP-mediated DDI)
Method: Pooled human liver microsomes (containing 20 mg/mL protein) were thawed on ice, and the reactions were conducted in a 96-well plate (1 mL, Agilent Technologies, Santa Clara, CA, USA). The assay buffer consisted of 0.1 M potassium phosphate buffer (pH 7.4). The premix solutions for each condition were prepared with specific volumes of each component, as outlined in Table S1. The premix solution was prepared by combining ivermectin, antimalarial drug, microsomes, and buffer. Three replicates of each premix solution were prepared, and 475 µL of each premix was transferred into separate wells of the 96-well plate. The plate was incubated at 37 °C for 5 min with gentle shaking (300 rpm). Following incubation, 25 µL of 20 mM NADPH was added to each well, and the solution was mixed thoroughly. The final incubation mixture (500 µL) contained a total microsome concentration of 0.53 mg/mL. To monitor the metabolism of ivermectin, 50 µL from each well was collected at 0, 15, 30, 45, 60, 90, 120, and 150 min and transferred to a new plate containing 200 µL of cold acetonitrile and 100 ng/mL of ivermectin-D2 (internal standard). The collection plate was kept on ice during sampling. After sample collection, the plate was sealed and centrifuged at 1,100 × g for 15 min at 4 °C. A 100 µL aliquot of the clear supernatant was transferred to a new plate for immediate LC–MS analysis.
The LC system consisted of an Agilent 1260 quaternary pump, an Agilent 1260 autosampler (set at 6 °C), and an Agilent 1290 column compartment (set at 40 °C). Five µL of sample was analysed on an Acquity UPLC HSS T3 reversed-phase column (2.1 × 100 mm, 1.8 μm) with a precolumn (2.1 × 5 mm, 1.8 μm) under a linear gradient. The mobile phase consisted of water with 10 mM ammonium acetate and 0.1% formic acid (A) and acetonitrile:water (95:5, v/v) with 10 mM ammonium acetate and 0.1% formic acid (B), at a flow rate of 0.3 mL/min. The gradient started at 75% B, ramped to 90% B over 2 min, held at 90% B for 4 min, and returned to 75% B in 0.1 min, with a 3.9-min re-equilibration. A Sciex TripleTOF 5600 + Q-TOF MS with DuoSpray ESI was used for LC–MS analysis in the positive mode, with source conditions set at 40 psi for ion source gas 1 (GS1) and gas 2 (GS2), 30 psi for curtain gas (CUR), 4,500 V for ion spray voltage floating (ISVF), 350 °C source temperature (TEM), and 120 V declustering potential (DP). Data were acquired from m/z 100–1,000 in TOF–MS scan mode using Analyst TF Software 1.8, and ivermectin quantification (ivermectin peak area/internal standard peak area) was performed with MultiQuant Software (Sciex, Framingham, MA, USA) with a high resolution TOF–MS scan mode.
The metabolism rate of ivermectin was evaluated based on the normalized peak area (%) of ivermectin over a total of 150 min of incubation. […] This normalized value was further adjusted relative to the pre-incubation ivermectin peak area (zero-minute sample) within a sample collection series, resulting in final ivermectin concentrations expressed as relative peak areas. All individual ivermectin concentrations (relative peak area) from triplicate incubations were fitted to an ordinary linear regression, separately conducted for ivermectin alone and ivermectin co-incubated with an antimalarial. The estimated (±95% CI) slope and intercept of the regression analysis was derived using GraphPad Prism v.10.4.2. Additionally, the slopes of the regression analyses were compared statistically between ivermectin alone and when co-incubation with an antimalarial, as an automated output from the regression analysis. Furthermore, the relative difference (%) in in vitro metabolism rate (i.e. difference between regression slopes) for ivermectin alone and when co-incubated with an antimalarial was calculated as shown in Eq. 1.

[4] = Rhesus macaques; cited from earlier work

Compound	Metabolism pathway [1]	Reported Cmax (ng/ml) [2]	further results
CCN(CC)Cc1cc(Nc2ccnc3cc(Cl)ccc23)ccc1O [Amodiaquine]	Major CYP2C8; Minor CYP1A1, CYP1B1 [23, 28]	–	–
CO[C@H]1O[C@@H]2O[C@@]3(C)CC[C@H]4[C@H](C)CC[C@@H]([C@H]1C)[C@@]24OO3 [Artemether]	Major CYP2B6; Minor CYP3A4 [19, 20, 26]	186 [11] ng/ml	–
C[C@H]1[C@H](OC(=O)CCC(=O)O)O[C@@H]2O[C@@]3(C)CC[C@H]4[C@H](C)CC[C@@H]1[C@@]24OO3 [Artesunate]	–	244 [11] ng/ml	–
O=C1C(O)=C([C@H]2CC[C@H](c3ccc(Cl)cc3)CC2)C(=O)c2ccccc21 [Atovaquone]	Major CYP3A4; Minor CYP2C9 [21, 22]	13,300 [11] ng/ml	–
CCN(CC)CCCC(C)Nc1ccnc2cc(Cl)ccc12 (centres unmarked) [Chloroquine]	–	1430 [11] ng/ml	DDI effect on the in vitro metabolism rate of ivermectin (class in words) [3]: substantial; Exposure to ivermectin on co-administration [4]: increased exposure to ivermectin
C[C@H]1[C@@H](O)O[C@@H]2O[C@@]3(C)CC[C@H]4[C@H](C)CC[C@@H]1[C@@]24OO3 [Dihydroartemisinin]	Glucuronidation by UGT1A9 and UGT2B7 [29]	421 [3] ng/ml	–
CC[C@H](C)[C@H]1O[C@]2(CC[C@@H]1C)C[C@@H]1C[C@@H](C/C=C(\C)[C@@H](O[C@H]3C[C@H](OC)[C@@H](O[C@H]4C[C@H](OC)[C@@H](O)[C@H](C)O4)[C@H](C)O3)[C@@H](C)/C=C/C=C3\CO[C@@H]4[C@H](O)C(C)=C[C@@H](C(=O)O1)[C@]34O)O2 [Ivermectin]	primarily metabolized by CYP3A4 and to a lesser extent CYP3A5 and CYP2C8; also recorded: Major CYP3A4; Minor CYP3A5, CYP2C8 [31, 32]	119 [3] ng/ml	Intercept (95%CI) of linear regression of ivermectin relative peak area (%), ivermectin alone ([3]; ivermectin 1 µM alone, control run paired with the antimalarial of the same table line): 97.6 (95.4-99.9) and 96.1 (94.1-98.1) and 98.0 (96.7-99.2) and 97.7 (96.2-99.2) and 98.0 (96.6-99.4) and 100.1 (98.5-101.7) and 97.8 (95.9-99.8)
CCCCN(CCCC)CC(O)c1cc(Cl)cc2c1-c1ccc(Cl)cc1/C2=C/c1ccc(Cl)cc1 (centres unmarked) [Lumefantrine]	CYP3A4 [19, 20]	25,700 [11] ng/ml	–
OC(c1cc(C(F)(F)F)nc2c(C(F)(F)F)cccc12)C1CCCCN1 (centres unmarked) [Mefloquine]	–	2700 [11] ng/ml	DDI effect on the in vitro metabolism rate of ivermectin (class in words) [3]: substantial
Clc1ccc2c(N3CCN(CCCN4CCN(c5ccnc6cc(Cl)ccc56)CC4)CC3)ccnc2c1 [Piperaquine]	Major CYP3A4; Minor CYP2C8 [14]	568 [11] ng/ml	–
COc1cc(NC(C)CCCN)c2ncccc2c1 (centres unmarked) [Primaquine]	Major CYP2D6; Minor CYP1A2 [23, 30]	167 [11] ng/ml	–
[H]/N=C(\N/C(=N/[H])Nc1ccc(Cl)cc1)NC(C)C [Proguanil]	CYP2C19 [18]	750 [11] ng/ml	–
CCc1nc(N)nc(N)c1-c1ccc(Cl)cc1 [Pyrimethamine]	CYP1B1, CYP2C9 [23]	280 [11] ng/ml	DDI effect on the in vitro metabolism rate of ivermectin (class in words) [3]: little impact; Intercept (95%CI) of linear regression of ivermectin relative peak area (%), combination ([3]; human, pH 7.4): 96.7 (95.0-98.3); Slope (95%CI) of linear regression of ivermectin relative peak area (%) over time, combination ([3]; human, pH 7.4): -0.21 (-0.24 to -0.19)
COc1ccc2nc3cc(Cl)ccc3c(Nc3cc(CN4CCCC4)c(O)c(CN4CCCC4)c3)c2n1 [Pyronaridine]	CYP1A2, CYP2D6, CYP3A4 [24]	571 [12] ng/ml	–
COc1ncnc(NS(=O)(=O)c2ccc(N)cc2)c1OC [Sulfadoxine]	Acetylation by N-Acetyltransferase 2 [25]	130,000 [11] ng/ml	–
COc1cc(C)c2c(Oc3cccc(C(F)(F)F)c3)c(OC)cc(NC(C)CCCN)c2n1 (centres unmarked) [Tafenoquine]	CYP2D6 [27]	300 [13] ng/ml	–
